Residue numbers refer to the chain shown, from its start. Several values for one entry are separate records, joined by “and”; a condition that tells them apart may be missing. Equal values may be shown once.
Columns and labels:
[1] = system: STING pathway in THP1-Dual cells co-cultured with MX-1 cancer cells; assay: STING activation, cancer cell/THP1-IRF3-Luciferase reporter cell co-culture assay (Example 36); details: 24 hours, concentrations based on payload, read-out: THP1-Dual cells/MX-1 co-cultures EC50
Procedure: The induction of the STING pathway in immune cells by B7-H4-targeted STING agonist conjugates was evaluated by a cancer cell/THP1-IRF3-Luciferase reporter cell co-culture assay. MX-1 cells were seeded in 96-well CellBind surface tissue culture plates (17,000 cells/well) and allowed to attach for 4 hours in RPMI-1640 medium with 10% FBS and 1% penicillin/streptomycin. […] THP1-Dual™ Cells (InvivoGen) (50,000 cells) were then added to each well and the incubation continued for 24 hours at 37° C. in a humidified atmosphere of 5% CO2. Cell culture supernatants (20 μL) from each incubated sample was added to resuspended QUANTI-Luc (InvivoGen) (50 μL) and the luminescent signal was measured immediately using a SpectraMax M5 plate reader (Molecular Devices). The EC50 values were determined from the dose response curve.

human B7-H4 [2] = target: T1, human B7-H4 (Homo sapiens, UniProt Q7Z7D3); assay: ELISA binding to human B7-H4 (Example 30); details: mean of two studies
T1 construct: purchased R&D Systems 6576-B7-050
T1 sequence (Q7Z7D3 25-282): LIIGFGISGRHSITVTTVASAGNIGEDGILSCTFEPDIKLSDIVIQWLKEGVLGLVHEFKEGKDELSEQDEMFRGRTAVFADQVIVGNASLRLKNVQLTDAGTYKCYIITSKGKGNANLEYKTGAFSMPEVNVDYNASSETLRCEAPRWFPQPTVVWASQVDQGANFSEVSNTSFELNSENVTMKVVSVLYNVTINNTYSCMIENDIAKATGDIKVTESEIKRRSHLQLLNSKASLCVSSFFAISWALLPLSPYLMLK
Procedure: (§2) Recombinant human B7-H4 protein (R&D Systems #6576-B7-050) was coated onto the surface of each well of a 96-well plate by incubation with the peptide (1 μg/mL in PBS), overnight at 4° C. The wells were then blocked by incubation with BSA (5% in PBS, containing 0.1% Tween 20 (PBST)) for 1 hour at room temperature. […] The unbound test article was removed by washing with PBST (3×). A secondary anti-human IgG conjugated to HRP (0.16 μg/mL in PBST) was incubated in each well for 1 hour. The unbound secondary antibody was removed by washing with PBST (3×). The HRP substrate, TMB, was added to each well and incubated until a blue color was visible. The reaction was quenched by the addition of sulfuric acid (0.2 N, 100 μL). […] The values were plotted using GraphPad Prism software. EC50 values were determined by four-parameter curve fitting.
(§3) Proteins used in these studies were: human B7-H4 (R&D Systems; 6576-B7-050), monkey B7-H4 (Creative Biomart; VTCN1-1519R), rat (R&D Systems 10085-B7), and mouse (Creative Biomart; VTCN1-1519R).

[3] = system: HEK-293 cells stably transfected with human B7-H4; assay: Cell surface binding by FACS, HEK-293-B7-H4 cells (Example 32); details: mean of two replicate experiments
Procedure: (§4) MX-1 cells were grown in DMEM:F12K (Life Technologies) with 10% FBS (Life Technologies) and 1% penicillin/streptomycin (Life Technologies). […] For staining, cells were detached by treatment with Accutase cell detachment solution (Innovative Cell Technologies). The detached cells were triturated in media, and plated in 96 well U-bottom plates, at a density of 50,000 cells in medium (75 μL). […] The cells were washed with ice cold PBS (3×), pelleted at 1,000×RCF between each wash step, and resuspended in RPMI-1640 with 2% goat serum (100 μL) and a secondary fluorescently labeled antibody, Alexa Fluor® 647-labelled goat anti-human IgG (5 μg/mL, Life Technologies) for 1 hour on ice. The cells were washed with ice cold PBS (3×) and resuspended in ice cold PBS with 1% paraformaldehyde (100 μL). The fluorescence per cell was determined by analyzing 5,000 cells for each treatment on the flow cytometer. The median fluorescence value for each treatment was plotted, and EC50 values were calculated with Graphpad Prism software by four-parameter curve fitting.
(§5) HEK-293-B7-H4 cells were grown in EMEM (ATCC), 10% FBS, 1% penicillin/streptomycin, and 3 μg/ml puromycin (Life Technologies) and untransfected HEK-293 cells were grown in EMEM, 10% FBS, 1% penicillin/streptomycin. […] Results are mean values for two replicate experiments for each test article.

MX-1 cells [4] = assay: Cell surface binding by FACS, MX-1 cells (Example 32); set-up: species or system human; details: mean of two replicate experiments
Procedure: as §4, §5

rat B7-H4 = target: T2, rat B7-H4 (Rattus norvegicus, UniProt Q501W4); assay: ELISA binding to rat B7-H4 (Example 30); details: mean of two studies
T2 construct: purchased R&D Systems 10085-B7
T2 sequence (Q501W4 25-257): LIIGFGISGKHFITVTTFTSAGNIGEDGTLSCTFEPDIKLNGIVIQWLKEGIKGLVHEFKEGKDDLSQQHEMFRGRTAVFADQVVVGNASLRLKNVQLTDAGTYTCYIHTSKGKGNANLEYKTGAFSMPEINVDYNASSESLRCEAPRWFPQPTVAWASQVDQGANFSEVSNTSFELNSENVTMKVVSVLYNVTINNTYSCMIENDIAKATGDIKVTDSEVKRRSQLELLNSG
Procedure: as §2, §3

[5] = system: HEK-293-WT cells cocultured with CTV-labeled CD3+ T cells; assay: T-cell suppression coculture assay with HEK-293-WT cells (Example 27); type: cell-based, human; details: HEK-293-WT coculture, antibody 50 nM, 4 day
Procedure: (§1) Next day, the media was removed and replaced with T cell media (Iscove's Modified Dulbecco's Medium with 10% FBS and 5% penicillin/streptomycin). […] Frozen human PBMCs (2.5×10^7 cells) were thawed and enriched for CD3+ T cells using Easy Step™ human T cell isolation kit (StemCell Technologies). CD3+ T cells were labeled with CellTrace™ Violet cell proliferation kit (CTV; ThermoFisher Scientific) and adjusted to 2×10^6 cells/mL. CTV-labeled T cells (1×10^5) were added to test article-treated HEK-293-WT or HEK-293-B7-H4 cells, stimulated with Immunocult™ Human CD3/CD28 T Cell Activator (StemCell Technologies), and incubated at 37° C. in 5% CO2. After 4 day of coculture of HEK-293-WT or HEK-293-B7-H4 with CTV-labeled T cells, T cell proliferation was assessed by the dilution of CTV-labeled T cells using flow cytometry. Cocultured cells (CTV-labeled T cells and HEK-293-WT/HEK-293-B7-H4 cells) from each group were transferred to a U-bottom 96-well plate, washed with PBS, stained with live/dead Fixable Aqua dead cell staining dye (ThermoFisher Scientific), and then additionally stained with fluorophore conjugated target specific or isotype control antibodies (FITC anti-human CD45, PE/Cy7 anti-human CD4, PE anti-human CD8). Cells were fixed and surface expression of the proteins of interest was determined by flow cytometry analysis on a MACSQuant flow cytometer. Data analysis was performed by FlowJo software using the following hierarchical flow: 1) single gate, 2) live cells, 3) CD45+ cells, and 4) diluted CTV (compared to unstimulated T cells). Percentage of proliferating CD4+ or CD8+ T cell were calculated using CD4+ combined with diluted CTV and CD8+ combined with diluted CTV, respectively. Data represent the mean (±standard deviation) of triplicate wells for each test article. Table 6 gives the population (%) of live cells, CD45+, proliferating CD4+ T cells, and proliferating CD8+ T cells for each condition.

human B7-H4 [6] = target: T1, human B7-H4; assay: ELISA binding of STING agonist conjugates to recombinant human B7-H4 protein (Example 34); details: Table 13
Procedure: as §2

[7] = system: untransfected HEK-293 cells; assay: Cell surface binding by FACS, untransfected HEK-293 cells (Example 32); details: mean of two replicate experiments
Procedure: as §4, §5

monkey B7-H4 = assay: ELISA binding to monkey B7-H4 (Example 30); details: mean of two studies
Procedure: as §2, §3

[8] = system: HEK-293-B7-H4 cells cocultured with CTV-labeled CD3+ T cells; assay: T-cell suppression coculture assay with HEK-293-B7-H4 cells (Example 27); type: cell-based, human; details: HEK-293-B7-H4 coculture; antibody 50 nM; 4 day; mean ± SD; two lines of values
Procedure: as §1

mouse B7-H4 = target: T3, mouse B7-H4 (Mus musculus, UniProt Q7TSP5); assay: ELISA binding to mouse B7-H4 (Example 30); details: mean of two studies
T3 construct: purchased Creative Biomart VTCN1-1519R
T3 sequence (Q7TSP5 25-257): T2 sequence (Q501W4 25-257) with H109R, E228Q
Procedure: as §2, §3

MX-1 cells [9] = assay: Cell surface binding of STING agonist conjugates by FACS, MX-1 cells (Example 35); set-up: species or system human; details: Table 14
Procedure: as §4

human B7-H4 [10] = target: T1, human B7-H4; assay: ELISA binding of XMT-1603 and XMT-1604 cytotoxic drug conjugates to human B7-H4 protein (Example 29); details: Table 8
Procedure: as §2

human B7-H4 [11] = target: T1, human B7-H4; assay: ELISA binding of variant B7-H4 cytotoxic drug conjugates to B7-H4 protein (Example 28); details: Table 7
Procedure: as §2

Cc1ccc2c(=O)c3cccc(CC(=O)O)c3oc2c1C [STING agonist]
EC50 [1]: > 100 nM

Palivizumab
EC50 (human B7-H4 [2]): > 100 nM | EC50 [3]: > 100 nM | EC50 (MX-1 cells [4]): > 100 nM | EC50 (rat B7-H4): > 100 nM | % Population Live cells (gated on single) ([5]; mean ± SD of triplicate wells, two unexplained lines of values per population): 78.2 ± 0.4% and 85.6 ± 11.2% | % Population CD45+ (gated on live cells) ([5]; mean ± SD, two lines of values): 69.0 ± 5.1% and 43.0 ± 11.0% | % Population Proliferating CD4+ (gated on single/live cells/CD45+) ([5]; mean ± SD, two lines of values): 32.9 ± 2.6% and 22.4 ± 2.3% | % Population Proliferating CD8+ (gated on single/live cells/CD45+) ([5]; mean ± SD, two lines of values): 9.5 ± 1.6% and 3.5 ± 0.8% | EC50 (human B7-H4 [6]): > 100 nM | EC50 [7]: > 100 nM | EC50 (monkey B7-H4): > 100 nM | % Population CD45+ (gated on live cells) [8]: 48.3 ± 4.1% and 50.1 ± 3.7% | % Population Live cells (gated on single) [8]: 80.1 ± 2.0% and 95.5 ± 2.8% | % Population Proliferating CD8+ (gated on single/live cells/CD45+) [8]: 3.4 ± 0.5% and 1.1 ± 0.6% | EC50 (mouse B7-H4): > 100 nM | EC50 (MX-1 cells [9]): > 200 nM | EC50 (human B7-H4 [10]): > 100 nM | EC50 (human B7-H4 [11]): > 100 nM

— patent US20240269306A1, “B7H4-TARGETED ANTIBODY-DRUG CONJUGATES AND METHODS OF USE THEREOF” (Mersana Therapeutics, Inc., priority 2021, published 2024)
